Test results reported in ChEMBL document CHEMBL1201862, “PubChem BioAssay data set” (2004).
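Growth conditions: 96-well plates. Treatment: test compound, 48 hours, 5 concentrations. Analysis: linear interpolation between bracketing concentrations; unreached endpoints set to highest concentration. Here, GI50 denotes the concentration required for 50% inhibition of growth.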 The source made the active and inactive calls. Cut-off read from the data, not from the text of the source: active = GI50 up to about 1.1 µM and inactive = higher.

Legend:
Assay in all cases: growth of human tumour cells (NCI), 48 h
CCRF-CEM = system: CCRF-CEM
A549 = system: A549
HCC 2998 = system: HCC 2998
A498 = system: A498
UACC-257 = system: UACC-257
SR = system: SR
EKVX = system: EKVX
NCI-H460 = system: NCI-H460
Malme-3M = system: Malme-3M
SF-268 = system: SF-268
SNB-19 = system: SNB-19
HCT-15 = system: HCT-15
MOLT-4 = system: MOLT-4
TK-10 = system: TK-10
U-251 = system: U-251
KM12 = system: KM12
NCI-H226 = system: NCI-H226
SK-MEL-28 = system: SK-MEL-28
SF-539 = system: SF-539
NCI/ADR-RES = system: NCI/ADR-RES

Row | SMILES | GI50 (CCRF-CEM) | GI50 (A549) | GI50 (HCC 2998) | GI50 (A498) | GI50 (UACC-257) | GI50 (SR) | GI50 (EKVX) | GI50 (NCI-H460) | GI50 (Malme-3M) | GI50 (SF-268) | GI50 (SNB-19) | GI50 (HCT-15) [µM] | GI50 (MOLT-4) | GI50 (TK-10) | GI50 (U-251) | GI50 (KM12) | GI50 (NCI-H226) | GI50 (SK-MEL-28) | GI50 (SF-539) | GI50 (NCI/ADR-RES)
1 | CCCCCCCCCCCC1CC(=O)NCCCN(C)CCCCN(C)CCCN1C (stereo not drawn) [BUDMUNCHIAMINE A] | 0.156 µM (active) | 1.76 µM (inactive) | 1.74 µM (inactive) | 1.67 µM (inactive) | 1.68 µM (inactive) | 0.23 µM (active) | 1.78 µM (inactive) | 1.36 µM (inactive) | 1.9 µM (inactive) | 1.85 µM (inactive) | 1.7 µM (inactive) | 1.63 | 1.95 µM (inactive) | 1.73 µM (inactive) | 1.66 µM (inactive) | 1.58 µM (inactive) | 1.93 µM (inactive) | 1.69 µM (inactive) | 1.75 µM (inactive) | –
2 | C[N+](C)(C)CC(=O)N/N=C(/Cc1nc2c3c(ccc2nc1O)C(=O)c1ccccc1C3=O)C(=O)Nc1ccc(Cl)c(Cl)c1 | 4.16 µM (inactive) | 42.7 µM (inactive) | 76.9 µM (inactive) | 33.7 µM (inactive) | > 100 µM (inactive) | 16 µM (inactive) | 13.1 µM (inactive) | 40.7 µM (inactive) | > 100 µM (inactive) | 26 µM (inactive) | – | – | 19.9 µM (inactive) | 39.1 µM (inactive) | – | 19.7 µM (inactive) | – | > 100 µM (inactive) | 93.1 µM (inactive) | –
3 | CNC(=O)c1nnn(Cc2ccccc2)c1S | > 100 µM (inactive) | > 100 µM (inactive) | > 100 µM (inactive) | – | > 100 µM (inactive) | – | > 100 µM (inactive) | > 100 µM (inactive) | – | – | > 100 µM (inactive) | > 100 | > 100 µM (inactive) | > 100 µM (inactive) | > 100 µM (inactive) | > 100 µM (inactive) | > 100 µM (inactive) | > 100 µM (inactive) | – | > 100 µM (inactive)
4 | C/C(=N\NC(=N)N)C(CN1CCCCC1)C(c1ccccc1)c1c(O)c2ccccc2oc1=O (stereo not drawn) | > 100 µM (inactive) | > 100 µM (inactive) | > 100 µM (inactive) | > 100 µM (inactive) | > 100 µM (inactive) | > 100 µM (inactive) | > 100 µM (inactive) | – | > 100 µM (inactive) | > 100 µM (inactive) | > 100 µM (inactive) | > 100 | – | > 100 µM (inactive) | – | – | > 100 µM (inactive) | > 100 µM (inactive) | > 100 µM (inactive) | –
5 | COc1ccc2nc3cc(Cl)ccc3c(Sc3ccc([N+](=O)[O-])cc3)c2c1 | > 10 µM (inactive) | > 10 µM (inactive) | > 10 µM (inactive) | > 10 µM (inactive) | > 10 µM (inactive) | > 10 µM (inactive) | > 10 µM (inactive) | > 10 µM (inactive) | > 10 µM (inactive) | > 10 µM (inactive) | > 10 µM (inactive) | > 10 | > 10 µM (inactive) | > 10 µM (inactive) | > 10 µM (inactive) | > 10 µM (inactive) | > 10 µM (inactive) | > 10 µM (inactive) | > 10 µM (inactive) | –
6 | O=C(Cc1nc2ccccc2c(=O)n1-c1c(Cl)cccc1Cl)c1ccncc1 | 16.7 µM (inactive) | 21.4 µM (inactive) | 22.5 µM (inactive) | 30.5 µM (inactive) | 22.3 µM (inactive) | 17.8 µM (inactive) | 61.5 µM (inactive) | 21.4 µM (inactive) | 24.7 µM (inactive) | 31 µM (inactive) | 31.4 µM (inactive) | 24.7 | 19 µM (inactive) | > 10 µM (inactive) | 29.6 µM (inactive) | 15.8 µM (inactive) | > 10 µM (inactive) | 21.1 µM (inactive) | 18.4 µM (inactive) | –
7 | C/C(=C1/N=C(c2cc([N+](=O)[O-])ccc2Cl)N(c2cccc(C)c2)C1=O)c1cc2ccccc2oc1=O | 23.3 µM (inactive) | > 100 µM (inactive) | > 100 µM (inactive) | > 100 µM (inactive) | 17.3 µM (inactive) | 30.3 µM (inactive) | > 100 µM (inactive) | 47.8 µM (inactive) | > 100 µM (inactive) | > 100 µM (inactive) | 95.5 µM (inactive) | 36.7 | 21.3 µM (inactive) | > 100 µM (inactive) | – | 64 µM (inactive) | 43.6 µM (inactive) | > 100 µM (inactive) | – | –
8 | CCOC(=O)NC(=O)c1cn(CCN2CCN(c3ncnc4[nH]cnc34)CC2)c(=O)[nH]c1=O | > 100 µM (inactive) | > 100 µM (inactive) | > 100 µM (inactive) | > 100 µM (inactive) | > 100 µM (inactive) | > 100 µM (inactive) | > 100 µM (inactive) | > 100 µM (inactive) | > 100 µM (inactive) | > 100 µM (inactive) | > 100 µM (inactive) | > 100 | > 100 µM (inactive) | > 100 µM (inactive) | > 100 µM (inactive) | > 100 µM (inactive) | > 100 µM (inactive) | > 100 µM (inactive) | > 100 µM (inactive) | –
9 | COC(=O)c1c(CC(=O)OC(C)C)cc2n(c1=O)Cc1c-2nc2ccccc2c1OC | > 100 µM (inactive) | > 100 µM (inactive) | > 100 µM (inactive) | > 100 µM (inactive) | > 100 µM (inactive) | 33.8 µM (inactive) | > 100 µM (inactive) | > 100 µM (inactive) | > 100 µM (inactive) | > 100 µM (inactive) | > 100 µM (inactive) | > 100 | > 100 µM (inactive) | > 100 µM (inactive) | > 100 µM (inactive) | – | 99.1 µM (inactive) | > 100 µM (inactive) | – | –
10 | COc1ccc(C2[C@H]3C(=O)N(c4ccc(Cc5ccc(N6C(=O)[C@@H]7ON(c8ccccc8)C(c8ccc(OC)cc8)[C@@H]7C6=O)cc5)cc4)C(=O)[C@H]3ON2c2ccccc2)cc1 (stereo partly drawn) | > 100 µM (inactive) | > 100 µM (inactive) | > 100 µM (inactive) | > 100 µM (inactive) | > 100 µM (inactive) | > 100 µM (inactive) | > 100 µM (inactive) | > 100 µM (inactive) | 87.5 µM (inactive) | > 100 µM (inactive) | > 100 µM (inactive) | > 100 | > 100 µM (inactive) | > 100 µM (inactive) | > 100 µM (inactive) | > 100 µM (inactive) | > 100 µM (inactive) | > 100 µM (inactive) | > 100 µM (inactive) | –
11 | C[N+](C)(C)CC1CCC/C1=N\OC(=O)c1ccccc1 (stereo not drawn) | > 100 µM (inactive) | > 100 µM (inactive) | – | > 100 µM (inactive) | > 100 µM (inactive) | > 100 µM (inactive) | > 100 µM (inactive) | – | > 100 µM (inactive) | > 100 µM (inactive) | > 100 µM (inactive) | > 100 | > 100 µM (inactive) | – | > 100 µM (inactive) | > 100 µM (inactive) | > 100 µM (inactive) | > 100 µM (inactive) | > 100 µM (inactive) | –
12 | CCOC(=O)N1CCN(C=S)CC1 | > 100 µM (inactive) | > 100 µM (inactive) | > 100 µM (inactive) | > 100 µM (inactive) | > 100 µM (inactive) | > 100 µM (inactive) | > 100 µM (inactive) | > 100 µM (inactive) | > 100 µM (inactive) | > 100 µM (inactive) | > 100 µM (inactive) | > 100 | > 100 µM (inactive) | > 100 µM (inactive) | > 100 µM (inactive) | > 100 µM (inactive) | – | > 100 µM (inactive) | > 100 µM (inactive) | –
13 | COc1cccc(C=C2N=C(C)N(n3c(-c4ccccc4)nc4ccccc4c3=O)C2=O)c1 | 57.5 µM (inactive) | > 100 µM (inactive) | > 100 µM (inactive) | > 100 µM (inactive) | > 100 µM (inactive) | 64.9 µM (inactive) | > 100 µM (inactive) | > 100 µM (inactive) | – | > 100 µM (inactive) | > 100 µM (inactive) | 77.1 | 94.4 µM (inactive) | > 100 µM (inactive) | – | > 100 µM (inactive) | > 100 µM (inactive) | > 100 µM (inactive) | > 100 µM (inactive) | –
14 | Clc1ncnc2c1ncn2CCCCCCCCCCCCn1cnc2c(Cl)ncnc21 | 1.36 µM (inactive) | 11.7 µM (inactive) | 6.7 µM (inactive) | 12.2 µM (inactive) | 2.86 µM (inactive) | 1.06 µM (active) | 16.7 µM (inactive) | 16.4 µM (inactive) | – | 14.3 µM (inactive) | 14.7 µM (inactive) | 13.1 | 6.78 µM (inactive) | 22.1 µM (inactive) | 11.6 µM (inactive) | 15.5 µM (inactive) | 11.7 µM (inactive) | 2.6 µM (inactive) | 14.4 µM (inactive) | –
15 | O=S(=O)(c1ccccc1)C1(C2(S(=O)(=O)c3ccccc3)CCN=N2)CCN=N1 (stereo not drawn) | > 100 µM (inactive) | > 100 µM (inactive) | > 100 µM (inactive) | – | > 100 µM (inactive) | > 100 µM (inactive) | > 100 µM (inactive) | > 100 µM (inactive) | > 100 µM (inactive) | > 100 µM (inactive) | > 100 µM (inactive) | > 100 | > 100 µM (inactive) | > 100 µM (inactive) | > 100 µM (inactive) | > 100 µM (inactive) | > 100 µM (inactive) | > 100 µM (inactive) | > 100 µM (inactive) | –
16 | c1ccc([P+](CCC[P+](c2ccccc2)(c2ccccc2)c2ccccc2)(c2ccccc2)c2ccccc2)cc1 | 22.4 µM (inactive) | 34 µM (inactive) | 32.2 µM (inactive) | 93.5 µM (inactive) | 24 µM (inactive) | 45 µM (inactive) | > 100 µM (inactive) | 20 µM (inactive) | 70.8 µM (inactive) | 40.4 µM (inactive) | 16.3 µM (inactive) | – | – | 86.7 µM (inactive) | 6.65 µM (inactive) | 24.4 µM (inactive) | 23.6 µM (inactive) | 33.5 µM (inactive) | 39 µM (inactive) | –
